# Measured values reported in PMC2731242, “Oleic Acid Biosynthesis in Plasmodium falciparum: Characterization of the Stearoyl-CoA Desaturase and Investigation as a Potential Therapeutic Target” (PLoS ONE, 2009).
# Target: T1, stearoyl-CoA Δ9-desaturase (PfSCD, PFE0555w) (Plasmodium falciparum, UniProt Q8I0W9)
# T1 construct: gene PF3D7_0511200; native enzyme in crude schizont lysate (500 µg total protein)
# Test: cell-free desaturase assay in schizont lysates, […]-stearoyl-CoA to oleic acid, silver nitrate TLC
# Format: biochemical
# T1 sequence (Q8I0W9 entry or part of it, stated change not applied): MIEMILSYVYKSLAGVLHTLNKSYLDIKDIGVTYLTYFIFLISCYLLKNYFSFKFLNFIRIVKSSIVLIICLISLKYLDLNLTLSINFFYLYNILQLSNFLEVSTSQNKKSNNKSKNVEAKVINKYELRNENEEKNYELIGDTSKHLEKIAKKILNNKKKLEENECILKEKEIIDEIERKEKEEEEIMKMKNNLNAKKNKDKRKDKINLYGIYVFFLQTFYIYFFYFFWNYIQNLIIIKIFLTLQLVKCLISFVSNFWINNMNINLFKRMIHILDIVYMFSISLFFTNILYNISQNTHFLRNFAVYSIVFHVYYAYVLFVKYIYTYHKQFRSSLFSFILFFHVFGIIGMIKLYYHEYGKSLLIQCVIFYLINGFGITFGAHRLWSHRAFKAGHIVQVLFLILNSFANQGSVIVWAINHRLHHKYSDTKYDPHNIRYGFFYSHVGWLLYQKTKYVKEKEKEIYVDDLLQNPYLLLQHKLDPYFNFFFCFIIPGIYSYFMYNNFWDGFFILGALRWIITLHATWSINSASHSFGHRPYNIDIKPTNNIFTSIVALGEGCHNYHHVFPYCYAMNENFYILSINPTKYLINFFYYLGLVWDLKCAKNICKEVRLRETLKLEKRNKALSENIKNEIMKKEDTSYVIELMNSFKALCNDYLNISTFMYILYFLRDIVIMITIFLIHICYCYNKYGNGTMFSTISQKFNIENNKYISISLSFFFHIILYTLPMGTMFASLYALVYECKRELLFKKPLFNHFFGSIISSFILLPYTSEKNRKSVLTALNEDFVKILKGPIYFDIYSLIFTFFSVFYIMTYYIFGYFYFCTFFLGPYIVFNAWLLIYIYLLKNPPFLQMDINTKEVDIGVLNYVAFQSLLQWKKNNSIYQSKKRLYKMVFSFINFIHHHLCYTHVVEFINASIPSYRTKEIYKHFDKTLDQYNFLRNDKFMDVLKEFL
smiles,measurement,value
"CCCCCCCCC1=C(CCCCCCCC(=O)OC)C1 [MeSter, methyl sterculate]",IC50,105 µM
